Results as given in US20200030278A1, “PHARMACEUTICAL COMPOSITIONS OF METAP-2 INHIBITORS” (Zafgen, Inc., priority 2017, published 2020).
Converted amounts (≈) assume the structure as drawn. Where two headings read alike, the source gives them in different places.

Experiments:
[1] = logD7.4 (physicochemical properties); details: pH 7.4
[2] = pKa (physicochemical properties)
[3] = Solubility (pH 7); assay type: physicochemical; details: pH 7, aqueous buffer
[4] = Pharmacokinetics after intravenous administration in rats; details: in vivo, Rat, IV Bolus, 3 mg/kg
Procedure: (§1) Animal experiments were performed in accordance with the Guide for the Care and Use of Laboratory Animals as adopted and promulgated by the U.S. National Institutes of Health or local equivalent and were approved by the Institution's Animal Care and Use Committee or local equivalent. Unless described otherwise, animals (mouse, rat, and dog studies) were maintained under standard conditions (12-hour light/dark cycle and approximately 21±4° C. and 55±15% relative humidity), and food (Rodent pellet chow [Research Diets, Brunswick N.J., or similar] or canine pellet [Certified Dog Diet 2021C, Harlan Teklad Diets, Madison, Wis.] or canned [i.e., Cesar® Mars Petcare, Victoria, Australia]) and water were available ad libitum. Unless described otherwise, drug formulations were administered s.c. daily (efficacy studies) or every 3 days (Q3D; safety studies).

[5] = Pharmacokinetics after intravenous administration in dogs; details: in vivo, Dog, IV Bolus, 0.142 mg/kg
Procedure: as §1

[6] = Pharmacokinetics after subcutaneous administration in humans; assay type: in vivo, Human; details: Human, SC, 2 mg
From the text: (§2) Assessment of differences in pharmacokinetics following subcutaneous administration reflect both differences in the pharmacokinetic properties of the compounds and differences in pharmaceutical factors that affect absorption of the formulations from the injection sites.

[7] = Pharmacokinetics after subcutaneous administration in rats; assay type: in vivo; details: plasma; Rat, SC, 6 mg/kg
Procedure: as §1, §2

[8] = Pharmacokinetics after subcutaneous administration in dogs; assay type: in vivo; details: beagle, plasma, Dog, SC, 0.6 mg/kg
Procedure: as §1, §2

[9] = Pharmacokinetics after subcutaneous administration in rabbits; assay type: in vivo, Rabbit
From the text: as §2

[10] = Protein binding in rat plasma (dialysis); assay type: in vitro ADME; details: Rat Plasma, read-out: % Bound (Mean) (converted)
[11] = Protein binding in dog plasma (dialysis); assay type: in vitro ADME; details: Dog Plasma, read-out: % Bound (Mean) (converted)
[12] = Protein binding in mouse plasma (dialysis); assay type: in vitro ADME; details: read-out: % Bound (Mean) (converted)
[13] = Protein binding in human plasma (dialysis); assay type: in vitro ADME; details: Human Plasma, 120 nM; read-out: % Bound (Mean) (converted)
[14] = Duration of plasma exposure after subcutaneous dosing, summary over species; assay type: in vivo, rat, dog, rabbit, human
[15] = Toxicology study in the rat, s.c. Q3D for 28 days; assay type: in vivo, Sprague Dawley rats; details: for NOAEL at 28 days / Cmax / AUC(0-t): Sprague Dawley, rat, in vivo, sc; for NOAEL at 28 days / Mortality/early euthanasia: s.c. Q3D, 4 weeks; for AUC(0-t): read-out: AUC0-t at NOAEL; for Mortality/early euthanasia: rats
Procedure: Male and female Sprague Dawley rats 9-10 weeks of age (Envigo RMS, Inc., Indianapolis, Ind. or Orient Bio Inc., Gyeonggi-do, South Korea) were individually housed at the testing facility. […] Animals were allocated to treatment groups based on body weight, and body weight and food consumption were recorded weekly. […] At necropsy, macroscopic pathologic findings were recorded, sperm motility and morphology were determined, selected organs were weighed, and selected tissues were collected for microscopic examination.

[16] = Hepatocyte incubation, metabolic profile, rat; assay type: in vitro ADME
[17] = Hepatocyte incubation, metabolic profile, dog; assay type: in vitro ADME
[18] = Hepatocyte incubation, metabolic profile, human; assay type: in vitro ADME
[19] = Major metabolites in rats dosed SC; assay type: in vivo
[20] = clinical trials in patients with obesity, PWS, or type 2 diabetes; cited from earlier work
[21] = Pharmacokinetic study in dogs, single s.c. injection (Example 3); details: both, beagle, dog, plasma, sc, 0.6 mg/kg
Procedure: Male and female beagle dogs of 9 to 11 months of age for PK characterization were individually housed at the testing facility Approximately 325 g of pelleted food was provided daily. […] Animals were observed twice daily for signs of ill health, morbidity, mortality, injury, and viability, and detailed clinical observations were conducted daily (including urine/fecal examination and hands-on examination). Food was weighed daily, and body weights were recorded at least weekly.
Samples were collected in tubes containing lithium heparin and processed for plasma by centrifugation (10 minutes at 3000 rpm). Supernatant was removed and stored frozen (−70° C.) until processed (BASi, West Lafayette, Ind.). Plasma drug concentration data were used to calculate PK parameters for individual concentration data using noncompartmental PK methods in Watson™ version 7.3.0.01 (Thermo Fisher Scientific, Inc., Waltham, Mass.).

[22] = female, 2 mg/kg, Day 1, female rats, NOAEL 2 mg/kg
[23] = female, 2 mg/kg, Day 31, female rats, NOAEL 2 mg/kg
[24] = male, 0.6 mg/kg, Day 1, male rats, NOAEL 0.6 mg/kg
[25] = male, 0.6 mg/kg, Day 31, male rats, NOAEL 0.6 mg/kg

SMILES: CO[C@@H]1[C@H](OC(=O)/C=C/c2ccc(OCCN(C)C)cc2)CC[C@]2(CO2)[C@H]1[C@@]1(C)O[C@@H]1CC=C(C)C [beloranib, reference compound]
- logD7.4 [1]: 2.72
- pKa [2]: 9.4
- solubility [3]: 300 µg/mL (≈ 600 µM)
- clearance [4]: 113 mL/min/kg
- half-life [4]: 1.05 ± 0.23 h
- Vd ([4]; read-out: Vdss): 5.08 ± 0.29 L/kg
- clearance [5]: 33.3 mL/min/kg
- half-life [5]: 2.9 ± 0.29 h
- Vd ([5]; read-out: Vdss): 5.07 ± 0.23 L/kg
- kel [6]: 0.0885 ± 0.0266 h⁻¹
- AUC(0-inf) ([6]; plasma): 5.44 ± 1.81 ng·h/mL
- half-life ([6]; plasma): 8.44 ± 2.49 h
- Cmax ([6]; plasma, read-out: Cmax): 1 ± 1.1 ng/mL
- Tmax ([6]; plasma, read-out: Tmax): 1.58 ± 1.28 h
- AUC(0-t) [7]: 412 ng·h/mL
- Cmax [7]: 270 ng/mL
- Tmax [7]: 0.5 h
- half-life [7]: 1.8 h
- AUC(0-t) [8]: 182 ± 73 ng·h/mL
- Cmax [8]: 16.6 ± 12.3 ng/mL
- Tmax [8]: 3.5 ± 1 h
- half-life ([8]; N = 1): 7.84 h
- AUC(0-t) ([9]; plasma, Rabbit, SC, 1 mg/kg): 222 ± 9 ng·h/mL
- Cmax ([9]; plasma, Rabbit, SC, 1 mg/kg): 52 ± 4.1 ng/mL
- Tmax ([9]; plasma, Rabbit, SC, 1 mg/kg): 1.7 ± 0.6 h
- half-life ([9]; plasma, Rabbit, SC, 1 mg/kg): 1.7 ± 0.3 h
- plasma concentration at 8 hours after dosing ([9]; rabbit, subcutaneous): still quantifiable
- fraction unbound at 60 nM ([10]; 60 nM): 0.0285
- fraction unbound at 120 nM ([10]; 120 nM): 0.055
- fraction unbound at 240 nM ([10]; 240 nM): 0.0415
- fraction unbound at 480 nM ([10]; 480 nM): 0.0326
- fraction unbound at 1000 nM ([10]; 1000 nM): 0.0434
- fraction unbound ([10]; All concentrations): 0.0402
- fraction unbound at 480 nM ([11]; 480 nM): 0.045
- fraction unbound at 1000 nM ([11]; 1000 nM): 0.059
- fraction unbound at 60 nM ([12]; 60 nM): 0.0181
- fraction unbound at 120 nM ([12]; 120 nM): 0.0191
- fraction unbound at 240 nM ([12]; 240 nM): 0.0259
- fraction unbound at 480 nM ([12]; 480 nM): 0.0222
- fraction unbound at 1000 nM ([12]; 1000 nM): 0.0212
- fraction unbound ([12]; All concentrations): 0.0213
- fraction unbound at 120 nM [13]: 0.0544
- interval between doses with plasma concentrations at background / minimal exposure ([14]; dosing once every 3 days in animals and twice a week in humans): approximately 48 hours
- plasma concentration at 24 hours after dosing ([14]; subcutaneous, rat, dog, and human): quantifiable
- NOAEL at 28 days ([15]; female rats, read-out: NOAEL (F)): 2 mg/kg
- NOAEL at 28 days ([15]; male rats, read-out: NOAEL): 0.6 mg/kg
- Cmax [15, 22]: 28.5 ng/mL
- AUC(0-t) [15, 22]: 96.9 ng·h/mL
- Cmax [15, 23]: 19.2 ng/mL
- AUC(0-t) [15, 23]: 56.7 ng·h/mL
- Cmax [15, 24]: 19.2 ng/mL
- AUC(0-t) [15, 24]: 36.8 ng·h/mL
- Cmax [15, 25]: 8.17 ng/mL
- AUC(0-t) [15, 25]: 29 ng·h/mL
- Mortality/early euthanasia [15]: mortality was noted by Days 16-24
- Mortality/early euthanasia ([15]; listed as Beloranib): 4/15 males in the 6 mg/kg dose
- metabolic profile / predominant pathway in hepatocytes [16]: glutathione (GSH) conjugation pathways being predominant
- metabolic profile / predominant pathway in hepatocytes [17]: glutathione (GSH) conjugation pathways being predominant
- metabolic profile / predominant pathway in hepatocytes [18]: glutathione (GSH) conjugation pathways being predominant
- pathway giving the major metabolites observed [19]: GSH conjugation and subsequent metabolic degradation of the GSH conjugates
- adverse events (AEs) [20]: venous thromboembolism
- half-life [21]: 9.3 h
